In patent US20230389548A1, “MIXTURES OF PYRIMIDINES AS HERBICIDAL COMPOSITIONS” (SYNGENTA CROP PROTECTION AG, priority 2020, published 2023):

Columns and labels:
Test in all cases: Post-emergence glasshouse spray test, visual percentage phytotoxicity after 13 days
Format in all cases: in vivo
[1] = tested on: Abutilon threophrasti (ABUTH); details: for ABUTH percentage phytotoxicity: B1; for Observed phytotoxicity ABUTH: B2.1.7
Method: (§1) Seeds of Setaria faberi (SETFA), Echinochloa crus-galli (ECHCG), Digitaria sanguinalis (DIGSA), Lolium perenne (LOLPE), Alopecurus myosuroides (ALOMY), Chenopodium album (CHEAL), Ipomoea hederacea (IPOHE), Stellaria media (STEME), Abutilon threophrasti (ABUTH), Amaranthus retroflexus (AMARE) were sown in standard sterilised soil in pots. After cultivation for 8 days under controlled conditions in a glasshouse (at 24/19° C., day/night; 16 hours light; no humidity control), the plants were sprayed at 500 l/Ha with an aqueous spray solution derived from the formulation of the technical active ingredients in a small amount of acetone and a solvent and emulsifier mixture referred to as IF50 (11.12% Emulsogen EL360™+44.44% N-methylpyrrolidone+44.44% Dowanol DPM glycol ether), to create a 50 g/l solution which was then diluted using 0.2% Genapol XO80 (CAS Number: 9043-30-5) as diluent to give the desired final dose of test compound.
(§2) Where active ingredients were applied as mixtures, aqueous spray solutions were prepared as above, containing both active ingredients.
(§3) The test plants were then grown under controlled conditions in a glasshouse (at 24/18° C., day/night; 15 hours light; 50% humidity) and watered twice daily. After 13 days, the test was evaluated visually for percentage phytotoxicity to the plants (where 100=total damage to plant; 0=no damage to plant; and NC=not captured) when compared to control untreated plants. Two to four replicates were applied for each treatment in a randomised block test design.
(§4) 22., E=X+Y−(X*Y/100), where
(§5) X=average percent phytotoxicity of herbicide A when applied at a certain rate Y=average percent phytotoxicity using herbicide B when applied at a certain rate E=the expected effect of the mixture of herbicides A and B as calculated from the Colby formula.

[2] = tested on: Amaranthus retroflexus (AMARE); details: for AMARE percentage phytotoxicity: B1
Method: as §1, §2, §3, §4, §5

[3] = tested on: Chenopodium album (CHEAL); details: for CHEAL percentage phytotoxicity: B1; for Observed phytotoxicity CHEAL: B2.1.6
Method: as §1, §2, §3, §4, §5

[4] = tested on: Digitaria sanguinalis (DIGSA); details: B1
Method: as §1, §2, §3, §4, §5

[5] = tested on: Echinochloa crus-galli (ECHCG); details: for ECHCG percentage phytotoxicity: B1; for Observed phytotoxicity ECHCG: B2.1.2
Method: as §1, §2, §3, §4, §5

[6] = tested on: Ipomoea hederacea (IPOHE); details: B1
Method: as §1, §2, §3, §4, §5

Lolium perenne (LOLPE) = details: for LOLPE percentage phytotoxicity: B1; for Observed phytotoxicity LOLPE: B2.1.1
Method: as §1, §2, §3, §4, §5

Setaria faberi (SETFA) = details: for SETFA percentage phytotoxicity: B1
Method: as §1, §2, §3, §4, §5

Stellaria media (STEME) = details: for STEME percentage phytotoxicity: B1; for Observed phytotoxicity STEME: B2.1.4
Method: as §1, §2, §3, §4, §5

Work on `CN1C[C@H](c2cccc(C(F)(F)F)c2)[C@@H](C(=O)Nc2ccccc2F)C1=O` [B-III] yielded an ABUTH percentage phytotoxicity ([1]; 3.125 g/ha post-emergence) of 10%, an ABUTH percentage phytotoxicity ([1]; 6.25 g/ha post-emergence) of 4% and an ABUTH percentage phytotoxicity ([1]; 12.5 g/ha post-emergence) of 3%. The ABUTH percentage phytotoxicity ([1]; 25 g/ha post-emergence) was 19%, the ABUTH percentage phytotoxicity ([1]; 50 g/ha post-emergence) was 18% and the “Observed phytotoxicity ABUTH” value ([1]; 6.25 g/ha post-emergence) was 4%. For the same molecule, the “Observed phytotoxicity ABUTH” value ([1]; 12.5 g/ha post-emergence) was 3%, the “Observed phytotoxicity ABUTH” value ([1]; 25 g/ha post-emergence) was 19% and the “Observed phytotoxicity ABUTH” value ([1]; 50 g/ha post-emergence) was 18%. The AMARE percentage phytotoxicity ([2]; 3.125 g/ha post-emergence) was 4%, the AMARE percentage phytotoxicity ([2]; 6.25 g/ha post-emergence) was 6% and the AMARE percentage phytotoxicity ([2]; 12.5 g/ha post-emergence) was 10%. For the same molecule, the AMARE percentage phytotoxicity ([2]; 25 g/ha post-emergence) was 21%, the AMARE percentage phytotoxicity ([2]; 50 g/ha post-emergence) was 31% and the “Observed phytotoxicity AMARE” value ([2]; B2.1.5, 6.25 g/ha post-emergence) was 6%. The CHEAL percentage phytotoxicity ([3]; 3.125 g/ha post-emergence) was 6%, the CHEAL percentage phytotoxicity ([3]; 6.25 g/ha post-emergence) was 10% and the CHEAL percentage phytotoxicity ([3]; 12.5 g/ha post-emergence) was 14%. For the same molecule, the CHEAL percentage phytotoxicity ([3]; 25 g/ha post-emergence) was 44%, the CHEAL percentage phytotoxicity ([3]; 50 g/ha post-emergence) was 56% and the “Observed phytotoxicity CHEAL” value ([3]; 6.25 g/ha post-emergence) was 10%. For the same molecule, the “Observed phytotoxicity CHEAL” value ([3]; 12.5 g/ha post-emergence) was 14%, the DIGSA percentage phytotoxicity ([4]; 3.125 g/ha post-emergence) was 72% and the DIGSA percentage phytotoxicity ([4]; 6.25 g/ha post-emergence) was 74%. For the same molecule, the DIGSA percentage phytotoxicity ([4]; 12.5 g/ha post-emergence) was 78%, the DIGSA percentage phytotoxicity ([4]; 25 g/ha post-emergence) was 79% and the DIGSA percentage phytotoxicity ([4]; 50 g/ha post-emergence) was 80%. For the same molecule, the ECHCG percentage phytotoxicity ([5]; 3.125 g/ha post-emergence) was 70%, the ECHCG percentage phytotoxicity ([5]; 6.25 g/ha post-emergence) was 70% and the ECHCG percentage phytotoxicity ([5]; 12.5 g/ha post-emergence) was 73%. For the same molecule, the ECHCG percentage phytotoxicity ([5]; 25 g/ha post-emergence) was 73%, the ECHCG percentage phytotoxicity ([5]; 50 g/ha post-emergence) was 75% and the “Observed phytotoxicity ECHCG” value ([5]; 12.5 g/ha post-emergence) was 73%. For the same molecule, the “Observed phytotoxicity ECHCG” value ([5]; 50 g/ha post-emergence) was 75%, the IPOHE percentage phytotoxicity ([6]; 3.125 g/ha post-emergence) was 9% and the IPOHE percentage phytotoxicity ([6]; 6.25 g/ha post-emergence) was 11%. The IPOHE percentage phytotoxicity ([6]; 12.5 g/ha post-emergence) was 15%, the IPOHE percentage phytotoxicity ([6]; 25 g/ha post-emergence) was 24% and the IPOHE percentage phytotoxicity ([6]; 50 g/ha post-emergence) was 28%. It also gave an LOLPE percentage phytotoxicity (Lolium perenne (LOLPE); 3.125 g/ha post-emergence) of 30%, an LOLPE percentage phytotoxicity (Lolium perenne (LOLPE); 6.25 g/ha post-emergence) of 43% and an LOLPE percentage phytotoxicity (Lolium perenne (LOLPE); 12.5 g/ha post-emergence) of 55%. The LOLPE percentage phytotoxicity (Lolium perenne (LOLPE); 25 g/ha post-emergence) was 70%, the LOLPE percentage phytotoxicity (Lolium perenne (LOLPE); 50 g/ha post-emergence) was 75% and the “Observed phytotoxicity LOLPE” value (Lolium perenne (LOLPE); 6.25 g/ha post-emergence) was 43%. The “Observed phytotoxicity LOLPE” value (Lolium perenne (LOLPE); 12.5 g/ha post-emergence) was 55%, the SETFA percentage phytotoxicity (Setaria faberi (SETFA); 3.125 g/ha post-emergence) was 66% and the SETFA percentage phytotoxicity (Setaria faberi (SETFA); 6.25 g/ha post-emergence) was 68%. For the same molecule, the SETFA percentage phytotoxicity (Setaria faberi (SETFA); 12.5 g/ha post-emergence) was 70%, the SETFA percentage phytotoxicity (Setaria faberi (SETFA); 25 g/ha post-emergence) was 74% and the SETFA percentage phytotoxicity (Setaria faberi (SETFA); 50 g/ha post-emergence) was 73%. The “Observed phytotoxicity SETFA” value (Setaria faberi (SETFA); B2.1.3, 25 g/ha post-emergence) was 74%, the STEME percentage phytotoxicity (Stellaria media (STEME); 3.125 g/ha post-emergence) was 13% and the STEME percentage phytotoxicity (Stellaria media (STEME); 6.25 g/ha post-emergence) was 21%. It also gave an STEME percentage phytotoxicity (Stellaria media (STEME); 12.5 g/ha post-emergence) of 14%, an STEME percentage phytotoxicity (Stellaria media (STEME); 25 g/ha post-emergence) of 46% and an STEME percentage phytotoxicity (Stellaria media (STEME); 50 g/ha post-emergence) of 71%. The “Observed phytotoxicity STEME” value (Stellaria media (STEME); 6.25 g/ha post-emergence) was 21% and the “Observed phytotoxicity STEME” value (Stellaria media (STEME); 12.5 g/ha post-emergence) was 14%.
